# Structures can show the parent of a compound that is named as a salt.
# Key:
# Type in all cases: in vivo
# [1] = test system: Broad-leaved Plants (d, e, f, g, h, i, j); assay: Average withering rate, single and mixed solutions (Test Example 11); set-up: unit: %; conditions: 3 weeks
# Excerpt: (§1) The alphabetical symbols in Tables 2 and 3 represent the following plants, respectively: a: Digitaria adscendens b: Setaria viridis c: Sorghum halepense d: Chenopodium album var. centrorubrum e: Amaranthus mangostanus f: Astragalus sinicus g: Abutilon theophrosti h: Solanum nigrum i: Xanthium strumarium j: Soybean; Glycine max k: Corn; Zea mays Table 2
# (§2) In each run, the compound (1) according to the invention only or the N-phosphonomethylglycine derivatives (117) only or the mixture thereof were used as in the Test Example 1 to prepare single solutions and mixed solutions by using various amounts of each components. Each of the preparations were applied to the plants as in Test Example 1 and the cultivation was continued for 3 weeks without additive application thereafter.
# (§3) The results were analyzed by Tammes's method [Tammes, P.M.L.: Neth. J. Plant Path., 70, 73-80 (1964)] which was cited in "Zasso Kenkyuu" (in Japanese) (Weed Studies) 14, 12-18 […] and shown in Fig. 1 and Fig. 2.
# (§4) Fig. 1 represents the average withering rate of 4 kinds of narrow-leaved plants (a, b, c, and k), while Fig. 2 gives withering rate of 7 kinds of broad-leaved plants (d, e, f, g, h, i j). As these figures show clearly, the curve binding the points of 95 % effect is inside the one of the synergistic effect, thus it can be concluded that the mixed preparation has synergistic effect.
# [2] = test system: Narrow-leaved Plants (a, b, c, k); assay: as above; set-up: unit: %; conditions: 3 weeks
# Excerpt: as §1, §2, §3, §4
# Abutilon theophrosti = assay: Herbicidal activity, spray of diphenyl ether with N-phosphonomethylglycine derivative (Test Examples 6 to 10); set-up: key: 0 means the state where the plants are as sound as before the application of the active compound; 1, 2, 3 and 4 mean varying degrees of the enfeebled state of the plants between 0 and 5; 1, 2, 3 and 4 mean varying degrees of the enfeebled state of the plants between 0 and 5; 1, 2, 3 and 4 mean varying degrees of the enfeebled state of the plants between 0 and 5; 1, 2, 3 and 4 mean varying degrees of the enfeebled state of the plants between 0 and 5; 5 is the state where the plants are withered or killed by application of the active compound; conditions: Application 0.375 Kg/ha (117) alone
# Description: (§5) In these examples, all parts means parts by weight, unless otherwise noted. The herbicidal activity was evaluated on a scale of 6 degrees. In other words, 0 means the state where the plants are as sound as before the application of the active compound, while 5 is the state where the plants are withered or killed by application of the active compound, and 1, 2, 3 and 4 mean varying degrees of the enfeebled state of the plants between 0 and 5.
# (§6) In each run, the diphenyl ether derivatives and the N-phosphonomethylglycine derivatives shown in Table 3 (in the indicated mixing ratios) was dissolved in 16 parts by volume of a mixture of water and acetone (1 : 1 by volume; containing 0.05 % of a nonionic surfactant, Sorpol-2680) in the indicated mixing ratio, respectively, to prepare spray solutions.
# (§7) The plants tested were grown in vinyl resin pots (diameter 10 cm) filled with soil in a green house for 2 to 3 weeks after germination from seeds or tubers.
# (§8) The spray solution was applied to the plants so that the total volume sprayed became 4 cc/100 cm², and the herbicidal activity was examined.
# as §1
# [3] = test system: Chenopodium album var. centrorubrum; assay: as above; set-up: key: 0 means the state where the plants are as sound as before the application of the active compound; 1, 2, 3 and 4 mean varying degrees of the enfeebled state of the plants between 0 and 5; 1, 2, 3 and 4 mean varying degrees of the enfeebled state of the plants between 0 and 5; 1, 2, 3 and 4 mean varying degrees of the enfeebled state of the plants between 0 and 5; 1, 2, 3 and 4 mean varying degrees of the enfeebled state of the plants between 0 and 5; 5 is the state where the plants are withered or killed by application of the active compound; conditions: Application 0.375 Kg/ha (117) alone
# Description: as §5, §6, §7, §8, §1
# Setaria viridis = assay: as above; set-up: key: 0 means the state where the plants are as sound as before the application of the active compound; 1, 2, 3 and 4 mean varying degrees of the enfeebled state of the plants between 0 and 5; 1, 2, 3 and 4 mean varying degrees of the enfeebled state of the plants between 0 and 5; 1, 2, 3 and 4 mean varying degrees of the enfeebled state of the plants between 0 and 5; 1, 2, 3 and 4 mean varying degrees of the enfeebled state of the plants between 0 and 5; 5 is the state where the plants are withered or killed by application of the active compound; conditions: Application 0.375 Kg/ha (117) alone
# Description: as §5, §6, §7, §8, §1
# Solanum nigrum = assay: as above; set-up: key: 0 means the state where the plants are as sound as before the application of the active compound; 1, 2, 3 and 4 mean varying degrees of the enfeebled state of the plants between 0 and 5; 1, 2, 3 and 4 mean varying degrees of the enfeebled state of the plants between 0 and 5; 1, 2, 3 and 4 mean varying degrees of the enfeebled state of the plants between 0 and 5; 1, 2, 3 and 4 mean varying degrees of the enfeebled state of the plants between 0 and 5; 5 is the state where the plants are withered or killed by application of the active compound; conditions: Application 0.375 Kg/ha (117) alone
# Description: as §5, §6, §7, §8, §1
# Soybean; Glycine max = assay: as above; set-up: key: 0 means the state where the plants are as sound as before the application of the active compound; 1, 2, 3 and 4 mean varying degrees of the enfeebled state of the plants between 0 and 5; 1, 2, 3 and 4 mean varying degrees of the enfeebled state of the plants between 0 and 5; 1, 2, 3 and 4 mean varying degrees of the enfeebled state of the plants between 0 and 5; 1, 2, 3 and 4 mean varying degrees of the enfeebled state of the plants between 0 and 5; 5 is the state where the plants are withered or killed by application of the active compound; conditions: Application 0.375 Kg/ha (117) alone
# Description: as §5, §6, §7, §8, §1
# Xanthium strumarium = assay: as above; set-up: key: 0 means the state where the plants are as sound as before the application of the active compound; 1, 2, 3 and 4 mean varying degrees of the enfeebled state of the plants between 0 and 5; 1, 2, 3 and 4 mean varying degrees of the enfeebled state of the plants between 0 and 5; 1, 2, 3 and 4 mean varying degrees of the enfeebled state of the plants between 0 and 5; 1, 2, 3 and 4 mean varying degrees of the enfeebled state of the plants between 0 and 5; 5 is the state where the plants are withered or killed by application of the active compound; conditions: Application 0.375 Kg/ha (117) alone
# Description: as §5, §6, §7, §8, §1
# [4] = Compound (1) 0.008 kg a.i./ha, Compound (117) 0 kg a.i./ha
# [5] = Compound (1) 0.016 kg a.i./ha, Compound (117) 0 kg a.i./ha
# [6] = Compound (1) 0.031 kg a.i./ha, Compound (117) 0 kg a.i./ha
# [7] = Compound (1) 0 kg a.i./ha, Compound (117) 0.094 kg a.i./ha
# [8] = Compound (1) 0 kg a.i./ha, Compound (117) 0.188 kg a.i./ha
# [9] = Compound (1) 0 kg a.i./ha, Compound (117) 0.375 kg a.i./ha
# [10] = Compound (1) 0 kg a.i./ha, Compound (117) 0.750 kg a.i./ha
smiles,measurement,setting,value
"COC(=O)C(C)Oc1cc(Oc2ccc(C(F)(F)F)cc2Cl)ccc1C#N (stereo not drawn) [Compound (1), Methyl α-[2-cyano-5-(2-chloro-4-trifluoromethylphenoxy)phenoxy]propionate]","Average Withering Rates of Broad-leaved Plants (d, e, f, g, h, i, j)",[1]; [4],80
same,"Average Withering Rates of Broad-leaved Plants (d, e, f, g, h, i, j)",[1]; [5],80
same,"Average Withering Rates of Broad-leaved Plants (d, e, f, g, h, i, j)",[1]; [6],96
same,"Average Withering Rates of Narrow-leaved Plants (a, b, c, k)",[2]; [4],33
same,"Average Withering Rates of Narrow-leaved Plants (a, b, c, k)",[2]; [5],47
same,"Average Withering Rates of Narrow-leaved Plants (a, b, c, k)",[2]; [6],80
same,"Average Withering Rates of Narrow-leaved Plants (a, b, c, k)","[2]; Compound (1) 0.063 kg a.i./ha, Compound (117) 0 kg a.i./ha",93
"O=C(O)CNCP(=O)(O)O [Compound (117), N-phosphonomethylglycine isopropylammonium salt]","herbicidal activity, Plants g",Abutilon theophrosti; 3 days after treatment,0
same,"herbicidal activity, Plants g",Abutilon theophrosti; 7 days after treatment,1
same,"herbicidal activity, Plants g",Abutilon theophrosti; 14 days after treatment,1
same,"herbicidal activity, Plants d",[3]; 3 days after treatment,0
same,"herbicidal activity, Plants d",[3]; 7 days after treatment,0
same,"herbicidal activity, Plants d",[3]; 14 days after treatment,1
same,"herbicidal activity, Plants b",Setaria viridis; 3 days after treatment,0
same,"herbicidal activity, Plants b",Setaria viridis; 7 days after treatment,0
same,"herbicidal activity, Plants b",Setaria viridis; 14 days after treatment,1
same,"herbicidal activity, Plants h",Solanum nigrum; 3 days after treatment,0
same,"herbicidal activity, Plants h",Solanum nigrum; 7 days after treatment,0
same,"herbicidal activity, Plants h",Solanum nigrum; 14 days after treatment,0
same,"herbicidal activity, Plants j",Soybean; Glycine max; 3 days after treatment,0
same,"herbicidal activity, Plants j",Soybean; Glycine max; 7 days after treatment,0
same,"herbicidal activity, Plants j",Soybean; Glycine max; 14 days after treatment,0
same,"herbicidal activity, Plants i",Xanthium strumarium; 3 days after treatment,0
same,"herbicidal activity, Plants i",Xanthium strumarium; 7 days after treatment,0
same,"herbicidal activity, Plants i",Xanthium strumarium; 14 days after treatment,1
same,"Average Withering Rates of Broad-leaved Plants (d, e, f, g, h, i, j)",[1]; [7],4
same,"Average Withering Rates of Broad-leaved Plants (d, e, f, g, h, i, j)",[1]; [8],36
same,"Average Withering Rates of Broad-leaved Plants (d, e, f, g, h, i, j)",[1]; [9],55
same,"Average Withering Rates of Broad-leaved Plants (d, e, f, g, h, i, j)",[1]; [10],80
same,"Average Withering Rates of Narrow-leaved Plants (a, b, c, k)",[2]; [7],50
same,"Average Withering Rates of Narrow-leaved Plants (a, b, c, k)",[2]; [8],87
same,"Average Withering Rates of Narrow-leaved Plants (a, b, c, k)",[2]; [9],87
same,"Average Withering Rates of Narrow-leaved Plants (a, b, c, k)",[2]; [10],95
